Test results: patent US20230398134A1, “SOLID DISPERSIONS OF CANNABIDIOL” (INDENA S.P.A., priority 2020, published 2023)

Experiments:
[1] = Solubility in fasted-state simulated intestinal fluid (FaSSIF, pH 6.5); assay type: physicochemical; settings: FaSSIF pH 6.5, excess solid, 2 hours stirring at room temperature, filtered 0.45 μm
Method: (§1) The solubility of the solid powder dispersion of CBD 2, prepared as described in Example 1, was evaluated in simulated biological fluids. […] For the purposes of the present description, the term “mechanical mixture” means a combination of one or more solids amalgamated by mixing techniques not involving the use of any solvent.
(§2) The solubility studies in different biologically relevant media of the solid dispersion prepared according to Example 1 were conducted to evaluate its behaviour in the intestine under fed and fasted conditions. The solubility studies were conducted in FaSSIF (pH 6.5) and FeSSIF (pH 5).
(§3) 10-20 mL of FaSSIF and FeSSIF were placed in 40 mL glass vials. An amount of solid dispersion prepared according to Example 1, and an amount of mechanical mixture prepared according to Example 2, in excess of the expected saturated solubility, was added to the vials; the resulting mixtures were maintained under stirring for 2 hours at room temperature. The mixtures were filtered through 0.45 μm PTFE membrane filters. The filtered solutions were analysed with HPLC instrumentation.
10-20 mL of FaSSIF was placed in 40 mL glass vials. […] The mixtures were filtered through 0.45 μm PTFE membrane filters. The filtered solutions were analysed with HPLC instrumentation.

[2] = Solubility in fed-state simulated intestinal fluid (FeSSIF, pH 5); assay type: physicochemical; settings: FeSSIF pH 5, excess solid, 2 hours stirring at room temperature, filtered 0.45 μm, HPLC (Table 2)
Method: as §1, §2, §3

C=C(C)[C@@H]1CCC(C)=C[C@H]1c1c(O)cc(CCCCC)cc1O [Cannabidiol 2, 2-[(1R,6R)-3-methyl-6-(prop-1-en-2-yl)-cyclohex-2-enyl]-5-pentylbenzen-1,3-diol]
Cannabidiol 2 (mg/mL) concentration ([1]; HPLC (Table 2)): 0.067 mg/mL | Cannabidiol 2 (mg/mL) concentration ([1]; HPLC (Table 3)): 0.067 mg/mL | Cannabidiol 2 (mg/mL) concentration [2]: 0.278 mg/mL
